In patent US20060111324A1, “(+)-Ttrans-isomers of (1-phosphonomethoxy-2-alkylcyclopropyl)methyl nucleoside derivatives, process for the preparation of stereoisomers thereof, and use of antiviral agents thereof” (LG Life Sciences, priority 2002, published 2006):
Read-outs that look alike come from different tables or passages of the source.

Key:
[1] = Determination of cytotoxicity (MTT) in HepG2.2.15 cells; details: human
[2] = tested on: Hepatitis B Virus (HBV); assay: Inhibition of hepatitis B virus replication in HepG2.2.15 cells, quantitative PCR of culture medium; format: cell-based; details: for pharmaceutical activity as an antiviral agent (in words): comparison among the compounds of Table 2
[3] = tested on: HepG2.2.15 cell; assay: Determination of cytotoxicity (MTT) in HepG2.2.15 cells; details: read-out: CC50 (μM) in HepG2.2.15; MTT, 10th day of drug treatment
[4] = tested on: HBV; assay: Pharmacological test on HBV transgenic mouse (serum HBV DNA by PCR); format: in vivo; details: for Result: number of mice showing pharmacological effect / number of total mice: effect = blood does not contain HBV DNA
[5] = tested on: HepG2.2.15 cell
[6] = Hepatitis B virus, 240 h, HepG2.2.15 cells, 10 days drug treatment, HBV DNA in medium by PCR

C[C@@H]1C[C@]1(Cn1cnc2c(Sc3ccc([N+](=O)[O-])cc3)nc(N)nc21)OCP(=O)(O)O (relative stereo) [Compound 44, [{(+)-cis-1-({2-amino-6-[(4-nitrophenyl)sulfanyl]-9H-purine-9-yl}methyl)-2-methylcyclopropyl}oxy]methylphosphonic acid]
CC50 at 10 days [1]: > 1 mM | EC50 [2, 6]: > 40 µM

CC1CC1(Cn1cnc2c(O)nc(N)nc21)OCP(=O)(O)O (single isomer, unassigned) [Compound 36, {(−)-trans-1-[(2-amino-6-hydroxy-9H-purine-9-yl)methyl]-2-methylcyclopropyl}oxy)methylphosphonic acid]
CC50 [3]: > 1000 µM | EC50 ([2]; HepG2.2.15 cells, 10 days drug treatment, HBV DNA in medium by PCR): > 10 µM

COc1ccc(Sc2nc(N)nc3c2ncn3CC2(OCP(=O)(OCOC(=O)C(C)(C)C)OCOC(=O)C(C)(C)C)CC2C)cc1 [Compound 8, (1S,2S)-3-{[(1-{[2-amino-6-(4-methoxyphenylthio)-9H-purine-9-yl]methyl}-2-methylcyclopropyl)oxy]methyl}-8,8-dimethyl-3,7-dioxo-2,4,6-trioxa-3λ^5-phospanon-1-yl-pivalate]
Result: number of mice showing pharmacological effect / number of total mice ([4]; oral, 1 mg/kg/day): 2/5

({(±)-trans-1-[(2-amino-6-hydroxy-9H-purine-9-yl)methyl]-2-propylcyclopropyl}oxy)methylphosphonic acid [Compound 40]
EC50 [2]: 1.2 µM | CC50 [5]: > 1 mM

CCC1CC1(Cn1cnc2c(O)nc(N)nc21)OCP(=O)(O)O (single isomer, unassigned) [Compound 37, ({(−)-trans-1-1(2-amino-6-hydroxy-9H-purine-9-yl)methyl]-2-ethylcyclopropyl}oxy)methylphosphonic acid]
CC50 at 10 days [1]: > 1 mM | EC50 [2, 6]: > 40 µM

CCC1CC1(Cn1cnc2cnc(N)nc21)OCP(=O)(O)O [Compound 13, ({(1S,^2S)-1-[(2-amino-9H-purine-9-yl)methyl]-2-ethylcyclopropyl}oxy)methylphosphonic acid]
CC50 at 10 days [1]: > 1 mM | EC50 [2, 6]: > 10 µM

C[C@@H]1C[C@]1(Cn1cnc2c(O)nc(N)nc21)OCP(=O)(O)O (single isomer, unassigned) [Compound 38, ({(+)-cis-1-[(2-amino-6-hydroxy-9H-purine-9-yl)methyl]-2-methylcyclopropyl}oxy)methylphosphonic acid]
CC50 at 10 days [1]: > 1 mM | EC50 [2, 6]: > 10 µM

[{(±)-trans-1-({2-amino-6-[(4-methoxyphenyl)sulfanyl]-9H-purine-9-yl}methyl)-2-ethylcyclopropyl }oxy]methylphosphonic acid [Compound 43]
EC50 [2]: > 0.2 µM | CC50 [5]: > 1 mM

({(±)-trans-1-[(6-amino-9H-purine-9-yl)methyl]-2-propylcyclopropyl}oxy)methylphosphonic acid [Compound 41]
EC50 [2]: > 30 µM | CC50 [5]: > 1 mM

({(±)-trans-1-[(2-amino-9H-purine-9-yl)methyl]-2-propylcyclopropyl}oxy)methylphosphonic acid [Compound 39]
EC50 [2]: > 40 µM | CC50 [5]: > 1 mM

CC[C@H]1C[C@]1(Cn1cnc2c(O)nc(N)nc21)OCP(=O)(O)O [Compound 12, ({(1S,2S)-1-[(2-amino-6-hydroxy-9H-purine-9-yl)methyl]-2-ethylcyclopropyl}oxy)methylphosphonic acid]
CC50 at 10 days [1]: > 1 mM | EC50 [2, 6]: 0.03 µM | pharmaceutical activity as an antiviral agent (in words) [2]: most excellent pharmaceutical activity

CC1CC1(Cn1cnc2c(N)ncnc21)OCP(=O)(O)O (stereo not drawn) [Compound 45, ({[(+)-cis-[1-(6-amino-9H-purine-9-yl)methyl]-2-methylcyclopropyl}oxylmethylphosphonic acid]
CC50 at 10 days [1]: > 1 mM | EC50 [2, 6]: > 40 µM

C[C@H]1C[C@]1(Cn1cnc2c(O)nc(N)nc21)OCP(=O)(O)O [Compound 1, (((1S,2S)-1-[(2-amino-6-hydroxy-9H-purine-9-yl)methyl]-2-methylcyclopropyl}oxy)methylphosphonic acid]
CC50 at 10 days [1]: > 1 mM | EC50 [2, 6]: 0.03 µM | pharmaceutical activity as an antiviral agent (in words) [2]: most excellent pharmaceutical activity

C[C@H]1C[C@]1(Cn1cnc2cnc(N)nc21)OCP(=O)(O)O [Compound 2, ({(1S,2S)-1-[(2-amino-9H-purine-9-yl)methyl]-2-methylcyclopropyl}oxy)methylphosphonic acid]
CC50 at 10 days [1]: > 1 mM | EC50 [2, 6]: 1 µM | Result: number of mice showing pharmacological effect / number of total mice ([4]; subcutaneous, 10 mg/kg/day): 4/4

CC1CC1(Cn1cnc2cnc(N)nc21)OCP(=O)(OCOC(=O)C(C)(C)C)OCOC(=O)C(C)(C)C [Compound 6, (1S,2S)-3-[({1-[(2-amino-9H-purine-9-yl)methyl]-2-methylcyclopropyl}oxy)methyl]-8,8-dimethyl-3,7-dioxo-2,4,6-trioxa-3λ^5-phosphanon-1-yl-pivalate]
Result: number of mice showing pharmacological effect / number of total mice ([4]; oral, 1 mg/kg/day): 5/5

CC(C)OC(=O)OCOP(=O)(COC1(Cn2cnc3cnc(N)nc32)CC1C)OCOC(=O)OC(C)C [Compound 7, (1S,2S)-bis {[(isopropoxycarbonyl)oxy]methyl}({1-[(2-amino-9H-purine-9-yl)methyl]-2-methylcyclopropyl}oxy)methylphosphonate]
pharmacological effect (in words) ([4]; HBV transgenic mice, orally administrated at 1 mpk or less): very excellent pharmacological effect | Result: number of mice showing pharmacological effect / number of total mice ([4]; oral, 1 mg/kg/day): 5/5
